Values quoted from earlier work in patent US5047247A, “Dispersible tablets of dihydroergotoxine methanesulfonate and of acid addition salts thereof” (LEK, priority 1988, dated 1991).

In the case of dihydroergotoxine, the “solubility in water, in words” value is listed as “poorly soluble in water”.
For dihydroergotoxine methanesulphonate, the “solubility in water, in words” value is given as “poorly soluble in water”.
